Legend:
[1] = target: T1, full length G2019 human LRRK2 (Homo sapiens, UniProt Q5S007, R50H); assay: Full length G2019 human LRRK2 inhibition mass spectrometry assay; format: biochemical; details: LRRKtide to phospho-LRRKtide conversion, RapidFire MS, 2 mM ATP
T1 construct: made in house; host or cells: HEK293 6E cells transduced with BacMam virus (virus generated in Sf9 cells)
Method in brief: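 Inhibition taken as reduced LRRKtide phosphorylation, quantified by RapidFire-coupled triple-quadrupole MS as product/(product+substrate) peak area. Reaction: 2 mM ATP, 25 μM peptide, ~25 nM full-length G2019 Flag-LRRK2, Hepes pH 7.2 buffer, room temperature for 1 h. 11-point 1-in-4 dilutions from 100 μM; logistic fit gives IC50, reported as pIC50.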

[2] = target: T2, LRRK2 kinase in SH-SY5Y cells over-expressing recombinant full length LRRK2 (Homo sapiens, UniProt Q5S007); assay: Recombinant cellular LRRK2 AlphaScreen assay (LRRK2 Ser935 phosphorylation); format: cell-based; details: 60 min
T2 construct: A BacMam virus expressing full length recombinant LRRK2 was purchased from Invitrogen; host or cells: SH-SY5Y human neuroblastoma cells transduced with BacMam LRRK2 virus
Method in brief: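 Read-out is AlphaScreen of LRRK2 pSer935 over total LRRK2 in lysates of SH-SY5Y cells over-expressing full-length LRRK2 via BacMam (24 h transduction). Cells were exposed 60 min at 37 °C to an 11-point 1-in-4 dilution series starting at 10 uM; sigmoidal fit.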

T1 sequence (Q5S007 with tags, fused parts or gaps R50H): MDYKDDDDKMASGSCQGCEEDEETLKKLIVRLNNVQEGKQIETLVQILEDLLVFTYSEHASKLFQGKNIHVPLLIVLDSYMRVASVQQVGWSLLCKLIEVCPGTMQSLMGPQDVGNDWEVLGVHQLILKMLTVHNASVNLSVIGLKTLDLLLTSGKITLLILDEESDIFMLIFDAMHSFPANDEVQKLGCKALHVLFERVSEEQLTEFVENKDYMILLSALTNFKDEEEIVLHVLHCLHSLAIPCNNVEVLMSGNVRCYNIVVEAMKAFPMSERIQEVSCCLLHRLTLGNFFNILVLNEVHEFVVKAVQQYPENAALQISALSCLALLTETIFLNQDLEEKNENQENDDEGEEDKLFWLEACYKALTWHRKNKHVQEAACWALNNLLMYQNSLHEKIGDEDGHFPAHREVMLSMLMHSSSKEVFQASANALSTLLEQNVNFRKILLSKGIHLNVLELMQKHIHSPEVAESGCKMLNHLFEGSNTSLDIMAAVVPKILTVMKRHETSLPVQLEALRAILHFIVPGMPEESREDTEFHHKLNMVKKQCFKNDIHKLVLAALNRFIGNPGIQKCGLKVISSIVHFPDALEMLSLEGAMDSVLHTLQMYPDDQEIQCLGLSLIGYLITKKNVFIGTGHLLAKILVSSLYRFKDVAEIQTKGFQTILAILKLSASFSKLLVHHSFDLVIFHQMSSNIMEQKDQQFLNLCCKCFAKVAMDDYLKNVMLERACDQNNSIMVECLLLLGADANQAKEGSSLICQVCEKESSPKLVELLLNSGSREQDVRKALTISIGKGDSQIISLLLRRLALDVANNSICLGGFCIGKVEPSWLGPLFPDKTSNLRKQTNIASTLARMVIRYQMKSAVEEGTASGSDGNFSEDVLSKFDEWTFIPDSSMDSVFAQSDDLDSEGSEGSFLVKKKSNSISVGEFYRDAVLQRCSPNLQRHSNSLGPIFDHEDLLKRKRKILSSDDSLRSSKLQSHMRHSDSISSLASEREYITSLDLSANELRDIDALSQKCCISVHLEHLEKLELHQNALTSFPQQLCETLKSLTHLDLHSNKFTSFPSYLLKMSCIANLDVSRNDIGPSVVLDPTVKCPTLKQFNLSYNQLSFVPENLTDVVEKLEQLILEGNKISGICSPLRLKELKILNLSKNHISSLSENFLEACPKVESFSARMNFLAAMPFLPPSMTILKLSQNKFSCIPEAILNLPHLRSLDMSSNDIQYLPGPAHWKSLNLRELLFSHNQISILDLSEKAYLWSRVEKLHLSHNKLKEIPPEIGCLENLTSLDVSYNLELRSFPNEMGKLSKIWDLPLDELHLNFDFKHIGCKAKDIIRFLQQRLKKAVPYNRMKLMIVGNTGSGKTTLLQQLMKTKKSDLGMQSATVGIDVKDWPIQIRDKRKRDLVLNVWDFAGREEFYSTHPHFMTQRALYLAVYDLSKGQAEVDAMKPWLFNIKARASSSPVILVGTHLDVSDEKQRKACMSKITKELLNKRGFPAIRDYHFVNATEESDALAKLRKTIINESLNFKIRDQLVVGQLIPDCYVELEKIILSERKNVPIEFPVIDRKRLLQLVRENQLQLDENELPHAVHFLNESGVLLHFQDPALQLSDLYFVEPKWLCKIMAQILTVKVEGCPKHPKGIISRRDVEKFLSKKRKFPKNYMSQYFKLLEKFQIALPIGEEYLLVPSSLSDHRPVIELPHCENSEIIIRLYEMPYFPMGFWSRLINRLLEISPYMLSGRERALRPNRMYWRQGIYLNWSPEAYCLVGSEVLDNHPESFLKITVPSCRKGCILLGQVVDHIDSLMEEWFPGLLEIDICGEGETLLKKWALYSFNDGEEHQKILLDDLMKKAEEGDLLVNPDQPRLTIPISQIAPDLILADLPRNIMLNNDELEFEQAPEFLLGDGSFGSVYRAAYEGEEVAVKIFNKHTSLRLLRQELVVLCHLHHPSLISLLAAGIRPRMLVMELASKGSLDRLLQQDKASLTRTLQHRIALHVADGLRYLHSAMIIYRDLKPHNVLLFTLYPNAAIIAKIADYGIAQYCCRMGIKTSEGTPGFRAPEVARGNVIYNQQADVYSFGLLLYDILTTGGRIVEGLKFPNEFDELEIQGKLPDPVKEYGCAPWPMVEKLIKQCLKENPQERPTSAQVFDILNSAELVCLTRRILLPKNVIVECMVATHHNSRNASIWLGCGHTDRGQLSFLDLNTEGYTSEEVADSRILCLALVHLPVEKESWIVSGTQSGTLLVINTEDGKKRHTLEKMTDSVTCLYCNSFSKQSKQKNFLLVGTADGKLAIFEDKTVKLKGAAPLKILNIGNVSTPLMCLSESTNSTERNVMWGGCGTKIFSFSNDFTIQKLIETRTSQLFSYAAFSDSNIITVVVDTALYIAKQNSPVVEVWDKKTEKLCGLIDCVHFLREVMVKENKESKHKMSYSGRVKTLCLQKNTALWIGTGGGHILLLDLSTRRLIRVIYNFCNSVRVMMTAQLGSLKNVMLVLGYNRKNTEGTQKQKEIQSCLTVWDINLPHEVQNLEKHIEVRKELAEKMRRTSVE
T2 sequence (Q5S007 whole entry): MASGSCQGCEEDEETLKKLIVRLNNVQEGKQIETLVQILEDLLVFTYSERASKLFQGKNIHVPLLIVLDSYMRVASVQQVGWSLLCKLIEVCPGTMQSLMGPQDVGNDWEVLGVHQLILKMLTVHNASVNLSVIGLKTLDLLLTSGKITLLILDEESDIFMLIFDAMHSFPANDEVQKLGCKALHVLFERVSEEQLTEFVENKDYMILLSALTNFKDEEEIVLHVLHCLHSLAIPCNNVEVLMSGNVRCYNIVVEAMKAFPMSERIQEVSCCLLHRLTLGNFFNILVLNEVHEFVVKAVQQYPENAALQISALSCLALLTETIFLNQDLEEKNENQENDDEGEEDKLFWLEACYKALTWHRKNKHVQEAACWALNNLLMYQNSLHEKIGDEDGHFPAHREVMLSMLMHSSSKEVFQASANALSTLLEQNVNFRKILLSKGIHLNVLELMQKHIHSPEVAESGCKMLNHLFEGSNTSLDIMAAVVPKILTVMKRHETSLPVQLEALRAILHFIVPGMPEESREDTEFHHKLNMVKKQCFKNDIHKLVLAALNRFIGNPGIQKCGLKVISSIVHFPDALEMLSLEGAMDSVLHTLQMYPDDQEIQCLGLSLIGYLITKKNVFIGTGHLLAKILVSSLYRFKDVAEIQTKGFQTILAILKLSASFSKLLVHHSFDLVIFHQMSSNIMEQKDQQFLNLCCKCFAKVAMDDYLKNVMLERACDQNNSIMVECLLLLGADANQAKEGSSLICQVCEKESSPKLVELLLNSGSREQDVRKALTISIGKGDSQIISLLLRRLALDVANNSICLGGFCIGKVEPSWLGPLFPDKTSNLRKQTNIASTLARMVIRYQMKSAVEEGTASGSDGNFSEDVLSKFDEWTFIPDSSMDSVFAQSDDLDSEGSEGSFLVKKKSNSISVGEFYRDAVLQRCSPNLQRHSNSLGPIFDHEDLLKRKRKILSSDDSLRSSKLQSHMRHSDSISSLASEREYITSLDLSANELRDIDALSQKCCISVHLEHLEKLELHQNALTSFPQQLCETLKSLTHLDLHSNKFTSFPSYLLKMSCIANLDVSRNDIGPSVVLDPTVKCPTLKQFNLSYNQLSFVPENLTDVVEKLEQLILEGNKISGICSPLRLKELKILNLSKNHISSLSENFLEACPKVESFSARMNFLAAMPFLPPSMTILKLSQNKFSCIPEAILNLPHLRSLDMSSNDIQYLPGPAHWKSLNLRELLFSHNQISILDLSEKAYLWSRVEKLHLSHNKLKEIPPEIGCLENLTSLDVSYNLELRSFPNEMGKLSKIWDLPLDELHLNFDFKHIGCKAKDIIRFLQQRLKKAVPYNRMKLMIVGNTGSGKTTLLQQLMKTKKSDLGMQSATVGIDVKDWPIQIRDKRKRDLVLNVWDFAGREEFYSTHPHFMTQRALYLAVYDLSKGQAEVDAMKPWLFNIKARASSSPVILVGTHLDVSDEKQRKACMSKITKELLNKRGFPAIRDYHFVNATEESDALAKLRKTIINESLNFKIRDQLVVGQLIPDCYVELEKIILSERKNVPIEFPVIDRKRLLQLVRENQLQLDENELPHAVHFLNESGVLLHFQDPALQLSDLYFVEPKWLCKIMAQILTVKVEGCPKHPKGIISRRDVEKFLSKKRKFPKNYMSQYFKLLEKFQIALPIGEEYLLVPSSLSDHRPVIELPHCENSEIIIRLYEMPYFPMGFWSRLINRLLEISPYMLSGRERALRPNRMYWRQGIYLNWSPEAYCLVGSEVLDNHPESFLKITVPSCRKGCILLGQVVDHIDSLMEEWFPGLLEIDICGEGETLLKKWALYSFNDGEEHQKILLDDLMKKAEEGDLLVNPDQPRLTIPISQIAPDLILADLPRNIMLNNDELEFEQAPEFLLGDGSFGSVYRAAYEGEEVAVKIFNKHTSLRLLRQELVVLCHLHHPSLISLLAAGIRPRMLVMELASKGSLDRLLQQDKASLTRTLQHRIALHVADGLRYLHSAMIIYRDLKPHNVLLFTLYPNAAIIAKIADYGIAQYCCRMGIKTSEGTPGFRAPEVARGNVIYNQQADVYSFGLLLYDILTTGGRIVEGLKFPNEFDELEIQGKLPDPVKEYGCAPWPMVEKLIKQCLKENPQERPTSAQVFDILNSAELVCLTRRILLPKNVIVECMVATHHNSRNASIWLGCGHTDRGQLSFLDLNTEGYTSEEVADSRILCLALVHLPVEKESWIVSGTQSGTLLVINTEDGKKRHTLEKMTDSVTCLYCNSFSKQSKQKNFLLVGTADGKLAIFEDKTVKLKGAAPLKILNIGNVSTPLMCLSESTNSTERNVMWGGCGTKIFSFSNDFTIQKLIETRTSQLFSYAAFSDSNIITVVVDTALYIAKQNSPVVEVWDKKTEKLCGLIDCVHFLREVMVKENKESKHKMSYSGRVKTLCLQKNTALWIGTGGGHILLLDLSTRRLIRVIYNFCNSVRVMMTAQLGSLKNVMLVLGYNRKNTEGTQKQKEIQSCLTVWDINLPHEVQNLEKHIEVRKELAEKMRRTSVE

Structure (SMILES)	IC50 [1] [nM]	IC50 [2] [nM]
Cc1c2c(nn1C1CCC(N3C[C@H]4C[C@@H]3CO4)CC1)OCCCNc1nc(ncc1Cl)N2 (single isomer, unassigned) [E48]	≤ 100	≤ 100
Cc1c2c(nn1C1CCN(C3COC3)CC1F)OCCCNc1nc(ncc1Cl)N2 (single isomer, unassigned) [E61, trans-14-chloro-5-[3-fluoro-1-(oxetan-3-yl)piperidin-4-yl]-4-methyl-8-oxa-2,5,6,12,16,17-hexaazatricyclo[11.3.1.0^3,7]heptadeca-1(16),3,6,13(17),14-pentaene]	≤ 100	≤ 100
COC1CNc2nc(ncc2Cl)Nc2c(nn(C3CCOCC3F)c2C)OC1 (single isomer, unassigned) [E70, 14-Chloro-5-(3-fluorooxan-4-yl)-10-methoxy-4-methyl-8-oxa-2,5,6,12,16,17-hexaaza tricyclo[11.3.1.0^3,7]heptadeca-1(16),3,6,13(17),14-pentaene]	≤ 100	≤ 100
COC1CNc2nc(ncc2C(F)(F)F)Nc2c(nn(C3CCOCC3)c2C)OC1 (single isomer, unassigned) [E121, 10-methoxy-4-methyl-5-(oxan-4-yl)-14-(trifluoromethyl)-8-oxa-2,5,6,12,16,17-hexaazatricyclo[11.3.1.0^3,7] heptadeca-1(16),3,6,13(17),14-pentaene]	≤ 100	≤ 100
Cc1c2c(nn1C1CCOC1)OCCCNc1nc(ncc1Cl)N2 (single isomer, unassigned) [E123, 14-chloro-4-methyl-5-(oxolan-3-yl)-8-oxa-2,5,6,12,16,17-hexaazatricyclo[11.3.1.0^3,7]heptadeca-1(16),3,6,13(17), 14-pentaene]	≤ 100	≤ 100
Cc1c2c(nn1C1CCOC1)OCCCNc1nc(ncc1C(F)(F)F)N2 (single isomer, unassigned) [E127, 4-methyl-5-(oxolan-3-yl)-14-(trifluoromethyl)-8-oxa-2,5,6,12,16,17-hexaazatricyclo[11.3.1.0^3,7]heptadeca-1(16),3,6,13(17),14-pentaene]	≤ 100	≤ 100
Clc1cnc2nc1NCCCOc1nn(C3CCOC3)c(Cl)c1N2 (single isomer, unassigned) [E145, 4,14-Dichloro-5-(oxolan-3-yl)-8-oxa-2,5,6,12, 16,17-hexaaza tricyclo[11.3.1.0^3,7]heptadeca-1(16),3,6,13(17), 14-pentaene]	≤ 100	≤ 100
Cc1c2c(nn1C(C)C1CCOCC1)OCCCNc1nc(ncc1Cl)N2 (single isomer, unassigned) [E186, 14-Chloro-4-methyl-5-[1-(oxan-4-yl)ethyl]-8-oxa-2,5,6,12,16,17-hexaazatricyclo[11.3.1.0^3,7]heptadeca-1(16), 3,6,13(17),14-pentaene]	≤ 100	≤ 100
COC1CNc2nc(ncc2Cl)Nc2c(nn(C3CC(C)OC(C)C3)c2C)OC1 (single isomer, unassigned) [E198, 14-Chloro-5-(2,6-dimethyloxan-4-yl)-10-methoxy-4-methyl-8-oxa-2,5,6,12,16,17-hexaazatricyclo[11.3.1.0^3,7] heptadeca-1(16),3,6,13(17),14-pentaene]	≤ 100	≤ 100
Cc1c2c(nn1CCN1CCOCC1)OCCC(C)Nc1nc(ncc1Cl)N2 (single isomer, unassigned) [E213, 14-Chloro-4,11-dimethyl-5-[2-(morpholin-4-yl)ethyl]-8-oxa-2,5,6,12,16,17-hexaazatricyclo[11.3.1.0^3,7] heptadeca-1(16),3,6,13(17),14-pentaene]	≤ 100	≤ 100
Cc1c2c(nn1CCN1CCC(F)(F)C1)OCCC(C)Nc1nc(ncc1Cl)N2 (single isomer, unassigned) [E215, 14-Chloro-5-[2-(3,3-difluoropyrrolidin-1-yl)ethyl]-4,11-dimethyl-8-oxa-2,5,6,12,16,17-hexaazatricyclo [11.3.1.0^3,7]heptadeca-1(16),3,6,13(17),14-pentaene]	≤ 100	≤ 100
Cc1c2c(nn1C1CC3CCC(C1)O3)OCCCNc1nc(ncc1Cl)N2 (single isomer, unassigned) [E243, 14-Chloro-4-methyl-5-{8-oxabicyclo[3.2.1]octan-3-yl}-8-oxa-2,5,6,12,16,17-hexaazatricyclo[11.3.1.0^3,7] heptadeca-1(16),3,6,13(17),14-pentaene]	≤ 100	≤ 100
COC1CNc2nc(ncc2Cl)Nc2c(nn(C3CC4CCC(C3)O4)c2C)OC1 (single isomer, unassigned) [E245, 14-Chloro-10-methoxy-4-methyl-5-{8-oxabicyclo[3.2.1]octan-3-yl}-8-oxa-2,5,6,12,16,17-hexaazatricyclo [11.3.1.0^3,7]heptadeca-1(16),3,6,13(17),14-pentaene]	≤ 100	≤ 100

Now from value to molecule:

IC50 [1] [nM]	IC50 [2] [nM]	Structure (SMILES)
≤ 100	≤ 100	COCC1CCOc2nn(C3CCOCC3)c(C)c2Nc2ncc(Cl)c(n2)N1 (single isomer, unassigned) [E35, 14-chloro-11-(methoxymethyl)-4-methyl-5-(oxan-4-yl)-8-oxa-2,5,6, 12,16,17-hexaazatricyclo-[11.3.1.0^3,7]heptadeca-1(16),3,6,13(17),14-pentaene]
≤ 100	≤ 100	Cc1c2c(nn1C1CCOCC1)OCCC(CF)Nc1nc(ncc1Cl)N2 (single isomer, unassigned) [E54, 14-chloro-11-(fluoromethyl)-4-methyl-5-(oxan-4-yl)-8-oxa-2,5,6,12, 16,17-hexaazatricyclo[11.3.1.0^3,7]heptadeca-1(16),3,6,13(17),14-pentaene]
≤ 100	≤ 100	Cc1c2c(nn1C1CCC(N3C[C@H]4C[C@@H]3CO4)CC1)OCCC(C)Nc1nc(ncc1Cl)N2 (single isomer, unassigned) [E57]
≤ 100	≤ 100	Cc1c2c(nn1C1CCOCC1)OCC(F)C(C)Nc1nc(ncc1Cl)N2 (single isomer, unassigned) [E64, 14-Chloro-10-fluoro-4,11-dimethyl-5-(oxan-4-yl)-8-oxa-2,5,6,12, 16,17-hexaazatricyclo[11.3.1.0^3,7]heptadeca-1(16),3,6,13(17),14-pentaene]
≤ 100	≤ 100	Cc1c2c(nn1C1CCCN(C3COC3)C1)OCC[C@@H](C)Nc1nc(ncc1Cl)N2 (single isomer, unassigned) [E67]
≤ 100	≤ 100	Cc1c2c(nn1C1CCOCC1)OCCC(C(F)F)Nc1nc(ncc1Cl)N2 (single isomer, unassigned) [E88, 14-chloro-11-(difluoromethyl)-4-methyl-5-(oxan-4-yl)-8-oxa-2,5,6, 12,16,17-hexaazatricyclo[11.3.1.0^3,7]heptadeca-1(16),3,6,13(17),14-pentaene]
≤ 100	≤ 100	Cc1c2c(nn1C1CCC(O)CC1)OCCCNc1nc(ncc1Cl)N2 (single isomer, unassigned) [E90, 4-{14-chloro-4-methyl-8-oxa-2,5,6,12,16,17-hexaazatricyclo[11.3.1.0^3,7]heptadeca-1(16),3,6,13(17),14-pentaen-5-yl}cyclohexan-1-ol]
≤ 100	≤ 100	Cc1c2c(nn1C1CCC(N3C[C@@H]4C[C@H]3CO4)CC1)OCCC(C)Nc1nc(ncc1Cl)N2 (single isomer, unassigned) [E104]
≤ 100	≤ 100	Cc1c2c(nn1C1CCOCC1)OCC(C)CNc1nc(ncc1Cl)N2 (single isomer, unassigned) [E136, 14-chloro-4,10-dimethyl-5-(oxan-4-yl)-8-oxa-2,5,6,12,16,17-hexaazatricyclo[11.3.1.0^3,7]heptadeca-1(16),3,6,13(17),14-pentaene]
≤ 100	≤ 100	Cc1c2c(nn1C(C)C1CCOCC1)OCCC(C)Nc1nc(ncc1Cl)N2 (single isomer, unassigned) [E183, 14-Chloro-4,11-dimethyl-5-[1-(oxan-4-yl)ethyl]-8-oxa-2,5,6,12,16,17-hexaazatricyclo[11.3.1.0^3,7]heptadeca-1(16),3,6,13(17),14-pentaene]
≤ 100	≤ 100	Cc1c2c(nn1C1CCOCC1)OCCC(C(F)(F)F)Nc1nc(ncc1Cl)N2 (single isomer, unassigned) [E192, 14-Chloro-4-methyl-5-(oxan-4-yl)-11-(trifluoromethyl)-8-oxa-2,5,6,12,16,17-hexaazatricyclo[11.3.1.0^3,7] heptadeca-1(16),3,6,13(17),14-pentaene]
≤ 100	≤ 100	Cc1c2c(nn1CCN1C[C@H]3C[C@@H]1CO3)OCCC(C)Nc1nc(ncc1Cl)N2 (single isomer, unassigned) [E208]
≤ 100	≤ 100	Cc1c2c(nn1CCN1CCC(F)C1)OCCC(C)Nc1nc(ncc1Cl)N2 (single isomer, unassigned) [E218, 14-Chloro-5-[2-(3-fluoropyrrolidin-1-yl)ethyl]-4,11-dimethyl-8-oxa-2,5,6,12,16,17-hexaazatricyclo [11.3.1.0^3,7] heptadeca-1(16),3,6,13(17),14-pentaene]
≤ 100	≤ 100	Cc1c2c(nn1C1CCC(C)CC1)OCCC(C)Nc1nc(ncc1Cl)N2 (single isomer, unassigned) [E259, 14-Chloro-4,11-dimethyl-5-(4-methylcyclohexyl)-8-oxa-2,5,6,12,16,17-hexaazatricyclo[11.3.1.0^3,7] heptadeca-1(16),3,6,13(17),14-pentaene]
